Laboratory results as given in patent publication US8324212B2, “Compounds for the treatment of hepatitis C” (Bristol-Myers Squibb Company, priority 2010, dated 2012).

Legend:
[1] = target: T1, HCV NS5B RdRp genotype 1b (Hepatitis C virus genotype 1b, UniProt Q9WMX2); assay: HCV NS5B RdRp enzyme assay; format: biochemical; conditions: standard or modified assay not stated
T1 construct: The cDNA encoding the NS5B protein of HCV, genotype 1b; made in house; host or cells: E. coli BL21 (DE3)
Procedure: HCV NS5B RdRp cloning, expression, and purification. The cDNA encoding the NS5B protein of HCV, genotype 1b, was cloned into the pET21a expression vector. The protein was expressed with an 18 amino acid C-terminal truncation to enhance the solubility. The E. coli competent cell line BL21 (DE3) was used for expression of the protein. Cultures were grown at 37° C. for ˜4 hours until the cultures reached an optical density of 2.0 at 600 nm. The cultures were cooled to 20° C. and induced with 1 mM IPTG. Fresh ampicillin was added to a final concentration of 50 μg/ml and the cells were grown overnight at 20° C.
Cell pellets (3L) were lysed for purification to yield 15-24 mgs of purified NS5B. The lysis buffer consisted of 20 mM Tris-HCl, pH 7.4, 500 mM NaCl, 0.5% triton X-100, 1 mM DTT, 1 mM EDTA, 20% glycerol, 0.5 mg/ml lysozyme, 10 mM MgCl2, 15 ug/ml deoxyribonuclease I, and Complete TM protease inhibitor tablets (Roche). After addition of the lysis buffer, frozen cell pellets were resuspended using a tissue homogenizer. To reduce the viscosity of the sample, aliquots of the lysate were sonicated on ice using a microtip attached to a Branson sonicator. The sonicated lysate was centrifuged at 100,000×g for 1 hr at 4° C. and filtered through a 0.2 μm filter unit (Corning).
The protein was purified using three sequential chromatography steps: Heparin sepharose CL-6B, polyU sepharose 4B, and Hitrap SP sepharose (Pharmacia). The chromatography buffers were identical to the lysis buffer but contained no lysozyme, deoxyribonuclease I, MgCl2 or protease inhibitor and the NaCl concentration of the buffer was adjusted according to the requirements for charging the protein onto the column. Each column was eluted with a NaCl gradient which varied in length from 5-50 column volumes depending on the column type. After the final chromatography step, the resulting purity of the enzyme is >90% based on SDS-PAGE analysis. The enzyme was aliquoted and stored at −80° C.
Standard HCV NS5B RdRp enzyme assay. HCV RdRp genotype 1b assays were run in a final volume of 60 μl in 96 well plates (Costar 3912). The assay buffer is composed of 20 mM Hepes, pH 7.5, 2.5 mM KCl, 2.5 mM MgCl2, 1 mM DTT, 1.6 U RNAse inhibitor (Promega N2515), 0.1 mg/ml BSA (Promega R3961), and 2% glycerol. All compounds were serially diluted (3-fold) in DMSO and diluted further in water such that the final concentration of DMSO in the assay was 2%. HCV RdRp genotype 1b enzyme was used at a final concentration of 28 nM. A polyA template was used at 6 nM, and a biotinylated oligo-dT12 primer was used at 180 nM final concentration. […] Plates were read on a Packard Top Count NXT after >1 hr incubation at room temperature. […]
IC50 values for compounds were determined using seven different [I]. […]

HCV replicon = HCV replicon assay (FRET / luciferase reporter); format: cell-based; conditions: Hepatitis C virus; HCV replicon cells (HUH-7)
Excerpt: FRET Assay Preparation. To perform the HCV FRET screening assay, 96-well cell culture plates were used. The FRET peptide (Anaspec, Inc.) (Taliani et al., Anal. Biochem. 1996, 240, 60-67) contains a fluorescence donor, EDANS, near one end of the peptide and an acceptor, DABCYL, near the other end. The fluorescence of the peptide is quenched by […] resonance energy transfer (RET) between the donor and the acceptor, but as the NS3 protease cleaves the peptide the products are released from RET quenching and the fluorescence of the donor becomes apparent. The assay reagent was made as follows: 5× cell Luciferase cell culture lysis reagent from Promega (#E153A) diluted to 1× with dH2O, NaCl added to 150 mM final, the FRET peptide diluted to 20 μM final from a 2 mM stock. […]
Assays. […] After reading in a Cytoflour 4000 instrument (PE Biosystems), plates were rinsed with PBS and then used for FRET assay by the addition of 30 ul of the FRET peptide assay reagent described above (FRET Assay Preparation) per well. The plate was then placed into the Cytoflour 4000 instrument which had been set to 340 excite/490 emission, automatic mode for 20 cycles and the plate read in a kinetic mode. Typically, the signal to noise using an endpoint analysis after the reads was at least three-fold. Alternatively, after Alamar blue reading, plates were rinsed with PBS, 50 ul of DMEM (high glucose) without phenol red was added and plates were then used for luciferase assay using the Promega Dual-Glo Luciferase Assay System.
Compound analysis was determined by quantification of the relative HCV replicon inhibition and the relative cytotoxicity values. To calculate cytoxicity values, the average Alamar Blue fluorescence signals from the control wells were set as 100% non-toxic. […]

HCV = conditions: cited from earlier work

T1 sequence (Q9WMX2 2420-2992): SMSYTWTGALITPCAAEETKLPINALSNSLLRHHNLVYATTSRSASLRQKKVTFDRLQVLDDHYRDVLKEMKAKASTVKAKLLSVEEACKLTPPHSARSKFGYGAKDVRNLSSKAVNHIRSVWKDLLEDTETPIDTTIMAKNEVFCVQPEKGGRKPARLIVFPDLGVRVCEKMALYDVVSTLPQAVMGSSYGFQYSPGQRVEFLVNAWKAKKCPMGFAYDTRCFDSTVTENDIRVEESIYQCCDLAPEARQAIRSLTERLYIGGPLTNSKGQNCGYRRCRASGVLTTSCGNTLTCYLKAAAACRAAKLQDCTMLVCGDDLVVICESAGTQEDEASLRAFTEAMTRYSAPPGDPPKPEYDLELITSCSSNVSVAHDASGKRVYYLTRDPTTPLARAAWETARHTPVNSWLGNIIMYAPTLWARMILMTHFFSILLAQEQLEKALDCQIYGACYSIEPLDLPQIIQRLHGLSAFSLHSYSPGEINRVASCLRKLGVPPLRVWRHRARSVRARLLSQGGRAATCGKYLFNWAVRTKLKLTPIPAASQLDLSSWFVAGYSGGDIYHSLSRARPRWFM

| SMILES | IC50 [1] [µM] | EC50 (HCV replicon) [µM] | toxicity during extended dosing (HCV; patients, extended dosing of the combination regimens) | HCV RNA levels in patients (HCV; single agent or combined with interferon and ribavirin) |
| --- | --- | --- | --- | --- |
| CNC(=O)c1c(-c2ccc(F)cc2)nn2nccc(-c3cc(C(=O)NC4(c5ccccc5)CC4)ccc3C)c12 [Example 2, 2-(4-fluorophenyl)-N-methyl-4-(2-methyl-5-(1-phenylcyclopropylcarbamoyl)phenyl)pyrazolo[1,5-b]pyridazine-3-carboxamide] | 3.06 | – | – | – |
| CNC(=O)c1c(-c2ccc(F)cc2)nn2ncc(-c3cc(C(=O)NC4(c5ncccn5)CC4)c(OC)cc3C)cc12 [Example 4, 2-(4-fluorophenyl)-5-(4-methoxy-2-methyl-5-(1-(pyrimidin-2-yl)cyclopropylcarbamoyl)phenyl)-N-methylpyrazolo[1,5-b]pyridazine-3-carboxamide] | 0.014 | 0.012 | – | – |
| CNC(=O)c1c(-c2ccc(F)cc2)nn2ncc(-c3cc(C(=O)NC4(c5ccccc5)CC4)ccc3C)cc12 [Example 1, 2-(4-fluorophenyl)-N-methyl-5-(2-methyl-5-(1-phenylcyclopropylcarbamoyl)phenyl)pyrazolo[1,5-b]pyridazine-3-carboxamide] | < 0.017 | 0.005 | – | – |
| CNC(=O)c1c(-c2ccc(F)cc2)oc2cc(N(CCO)S(C)(=O)=O)c(C3CC3)cc12 [HCV-796] | – | – | hepatic toxicity observed | showed an ability to reduce HCV RNA levels in patients |
| CNC(=O)c1c(-c2ccc(F)cc2)nn2ncc(-c3cc(C(=O)NC4(c5ccccc5)CC4)c(OC)cc3C)cc12 [Example 3, 2-(4-fluorophenyl)-5-(4-methoxy-2-methyl-5-(1-phenylcyclopropylcarbamoyl)phenyl)-N-methylpyrazolo[1,5-b]pyridazine-3-carboxamide] | 0.011 | 0.002 | – | – |
